Experimental data as given in the NIST ThermoML archive (doi:10.1016/j.fluid.2017.06.024).

Assay: molar heat capacity at constant pressure
Details: 100 kPa, Liquid, DSC

CC(C)OC(C)C [diisopropyl ether]
Details | molar heat capacity at constant pressure [J/K/mol]
290.5 K | 210.58
295.44 K | 212.42
300.38 K | 214.46
305.32 K | 216.51
310.26 K | 218.55
315.19 K | 220.6
320.13 K | 222.64
325.07 K | 224.68
330.01 K | 226.93
334.95 K | 229.08
339.89 K | 231.22
